13 compounds from PubChem BioAssay AID256 (DTP/NCI, 2004) can be followed below.

Several values for one entry are separate records, joined by “and”; a condition that tells them apart may be missing. Equal values may be shown once. Toxic doses and inconclusive results are not listed.

For this assay, the system named is CD2F1 mice, L1210 leukemia ip, survival T/C. Put plainly: NCI In Vivo Anticancer Drug Screen. Data for tumor model L1210 Leukemia (intraperitoneal) in CD2F1 (CDF1) mice. The note with it: higher = longer survival. The method in brief:
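Transplantable tumor in mice; compound-treated vs vehicle-treated groups. Read-out = treated/control ratio of the measured endpoint.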

Setting [1] is: endpoint: mean survival time, dose: 100.0 mg/kg/injection, schedule: Q01DX001 (ip), vehicle: other.
Setting [2] is: endpoint: mean survival time, dose: 200.0 mg/kg/injection, schedule: Q01DX001 (ip), vehicle: other.
[3] abbreviates: endpoint: mean survival time, dose: 100.0 mg/kg/injection, schedule: Q01DX009 (ip), vehicle: Klucel (hydroxypropylcellulose) (HPC).

In the case of `O=C(NC(=S)Nc1cccc(F)c1)c1cccc(Br)c1`, the T/C reads like this: (endpoint: mean survival time, dose: 50.0 mg/kg/injection, schedule: Q01DX009 (ip), vehicle: other) 98 % of control and 104 % of control; (endpoint: mean survival time, dose: 50.0 mg/kg/injection, schedule: Q04DX003 (ip), vehicle: other) 111 % of control; under setting [1], 102 % of control; (endpoint: mean survival time, dose: 100.0 mg/kg/injection, schedule: Q04DX002 (ip), vehicle: other) 95 % of control; (endpoint: mean survival time, dose: 100.0 mg/kg/injection, schedule: Q04DX003 (ip), vehicle: other) 104 % of control; under setting [2], 98 % of control. The T/C is 91 % of control (endpoint: mean survival time, dose: 200.0 mg/kg/injection, schedule: Q04DX002 (ip), vehicle: other); 102 % of control (endpoint: mean survival time, dose: 200.0 mg/kg/injection, schedule: Q04DX003 (ip), vehicle: other); 101 % of control (endpoint: mean survival time, dose: 400.0 mg/kg/injection, schedule: Q04DX002 (ip), vehicle: other); 106 % of control (endpoint: mean survival time, dose: 400.0 mg/kg/injection, schedule: Q04DX003 (ip), vehicle: other).

For `C=CC[n+]1ccccc1/C=C\c1ccc(N(C)C)cc1`, the T/C (endpoint: mean survival time, dose: 75.0 mg/kg/injection, schedule: Q01DX001 (ip), vehicle: saline) is 118 % of control.

As to `O=C(O)CC(=O)CC(=O)O.[NH-]C1CCCCC1[NH-].[Pt+2]`, the T/C (endpoint: median survival time, dose: 3.12 mg/kg/injection, schedule: Q04DX003 (ip), vehicle: saline) was 101 % of control and 108 % of control; the T/C (endpoint: median survival time, dose: 6.25 mg/kg/injection, schedule: Q04DX003 (ip), vehicle: saline) was 114 % of control and 108 % of control; the T/C (endpoint: median survival time, dose: 12.5 mg/kg/injection, schedule: Q04DX003 (ip), vehicle: saline) is 118 % of control and 112 % of control; the T/C (endpoint: median survival time, dose: 25.0 mg/kg/injection, schedule: Q04DX003 (ip), vehicle: saline) was 122 % of control; the T/C (endpoint: median survival time, dose: 100.0 mg/kg/injection, schedule: Q04DX003 (ip), vehicle: saline) was 162 % of control and 294 % of control; the T/C (endpoint: median survival time, dose: 200.0 mg/kg/injection, schedule: Q04DX003 (ip), vehicle: saline) is 241 % of control.

Regarding `COC1=CCC(OC)=C(C)C1`, the T/C (endpoint: mean survival time, dose: 100.0 mg/kg/injection, schedule: Q04DX003 (ip), vehicle: saline with Tween-80) is 93 % of control.

In the case of `O=C(OC(c1ccccc1)c1ccccc1)C(CSC(c1ccccc1)(c1ccccc1)c1ccccc1)NC(c1ccccc1)(c1ccccc1)c1ccccc1` (centres undefined), the T/C is 96 % of control (endpoint: mean survival time, dose: 50.0 mg/kg/injection, schedule: Q01DX009 (ip), vehicle: saline); 101 % of control (endpoint: mean survival time, dose: 100.0 mg/kg/injection, schedule: Q01DX009 (ip), vehicle: saline); 102 % of control (endpoint: mean survival time, dose: 200.0 mg/kg/injection, schedule: Q01DX009 (ip), vehicle: saline); 98 % of control (endpoint: mean survival time, dose: 400.0 mg/kg/injection, schedule: Q01DX009 (ip), vehicle: saline).

For `CC(=O)C(C)(NCc1ccccc1)c1ccccc1` (centres undefined), the T/C runs as follows: (endpoint: mean survival time, dose: 50.0 mg/kg/injection, schedule: Q01DX009 (ip), vehicle: Klucel (hydroxypropylcellulose) (HPC)) 97 % of control; under setting [1], 100 % of control; (endpoint: mean survival time, dose: 100.0 mg/kg/injection, schedule: Q01DX001 (ip), vehicle: saline) 101 % of control; under setting [3], 100 % of control; under setting [2], 92 % of control; (endpoint: mean survival time, dose: 200.0 mg/kg/injection, schedule: Q01DX001 (ip), vehicle: saline) 95 % of control. Further, the T/C by setting is: (endpoint: mean survival time, dose: 200.0 mg/kg/injection, schedule: Q01DX009 (ip), vehicle: Klucel (hydroxypropylcellulose) (HPC)) 100 % of control; (endpoint: mean survival time, dose: 400.0 mg/kg/injection, schedule: Q01DX001 (ip), vehicle: other) 107 % of control; (endpoint: mean survival time, dose: 400.0 mg/kg/injection, schedule: Q01DX001 (ip), vehicle: saline) 93 % of control; (endpoint: mean survival time, dose: 400.0 mg/kg/injection, schedule: Q01DX009 (ip), vehicle: Klucel (hydroxypropylcellulose) (HPC)) 106 % of control.

For the compound `Nc1ccc2oc(=O)c(C(=O)O)cc2c1`, the T/C is 93 % of control (endpoint: mean survival time, dose: 100.0 mg/kg/injection, schedule: Q01DX001 (ip), vehicle: saline with Tween-80) and 89 % of control (endpoint: mean survival time, dose: 200.0 mg/kg/injection, schedule: Q01DX001 (ip), vehicle: saline with Tween-80).

On to `CCCC(C)C1(CC)C(=O)NC(=O)NC1=O` (centres undefined), for which the T/C reads like this: (endpoint: mean survival time, dose: 20.0 mg/kg/injection, schedule: Q01DX009 (ip), vehicle: saline) 95 % of control; (endpoint: mean survival time, dose: 40.0 mg/kg/injection, schedule: Q01DX009 (ip), vehicle: saline) 104 % of control.

With `CCNC1=C(C)C(=O)C2=C(C1=O)C(COC(N)=O)C1(OC)C3NC3CN21` (centres undefined), the T/C is, setting by setting: (endpoint: mean survival time, dose: 1.5 mg/kg/injection, schedule: Q01DX001 (ip), vehicle: water) 98 % of control; (endpoint: mean survival time, dose: 3.0 mg/kg/injection, schedule: Q01DX001 (ip), vehicle: water) 110 % of control; (endpoint: mean survival time, dose: 6.0 mg/kg/injection, schedule: Q01DX001 (ip), vehicle: water) 110 % of control; (endpoint: mean survival time, dose: 12.0 mg/kg/injection, schedule: Q01DX001 (ip), vehicle: water) 114 % of control.

As for `CC(C)OC(=O)c1cc([N+](=O)[O-])cc([N+](=O)[O-])c1Sc1ncnc2nc[nH]c12`, the T/C was 115 % of control (endpoint: mean survival time, dose: 0.63 mg/kg/injection, schedule: Q01DX005 (ip), vehicle: other); 118 % of control (endpoint: mean survival time, dose: 1.25 mg/kg/injection, schedule: Q01DX005 (ip), vehicle: other); 115 % of control (endpoint: mean survival time, dose: 2.5 mg/kg/injection, schedule: Q01DX005 (ip), vehicle: other); 156 % of control (endpoint: mean survival time, dose: 18.8 mg/kg/injection, schedule: Q01DX005 (ip), vehicle: other).

As to `O=[N+]([O-])c1c[n+]([O-])ccc1Cl`, the T/C is, setting by setting: (endpoint: mean survival time, dose: 5.0 mg/kg/injection, schedule: Q01DX001 (ip), vehicle: saline) 101 % of control; (endpoint: mean survival time, dose: 10.0 mg/kg/injection, schedule: Q01DX001 (ip), vehicle: saline) 103 % of control.

Regarding `O=C(O)c1ccc(Nc2c3ccccc3nc3ccccc23)cc1`, the T/C is 170 % of control and 179 % of control (endpoint: mean survival time, dose: 44.0 mg/kg/injection, schedule: Q01DX009 (ip), vehicle: Klucel (hydroxypropylcellulose) (HPC)); 207 % of control and 225 % of control (endpoint: mean survival time, dose: 66.0 mg/kg/injection, schedule: Q01DX009 (ip), vehicle: Klucel (hydroxypropylcellulose) (HPC)); 121 % of control (endpoint: mean survival time, dose: 75.0 mg/kg/injection, schedule: Q01DX001 (ip), vehicle: Klucel (hydroxypropylcellulose) (HPC)); 154 % of control (endpoint: mean survival time, dose: 75.0 mg/kg/injection, schedule: Q04DX003 (ip), vehicle: Klucel (hydroxypropylcellulose) (HPC)); 119 % of control (endpoint: mean survival time, dose: 88.0 mg/kg/injection, schedule: Q01DX001 (ip), vehicle: Klucel (hydroxypropylcellulose) (HPC)); 167 % of control and 184 % of control under setting [3]. In addition, the T/C (endpoint: mean survival time, dose: 100.0 mg/kg/injection, schedule: Q04DX003 (ip), vehicle: Klucel (hydroxypropylcellulose) (HPC)) is 162 % of control; the T/C (endpoint: mean survival time, dose: 133.0 mg/kg/injection, schedule: Q04DX002 (ip), vehicle: Klucel (hydroxypropylcellulose) (HPC)) is 167 % of control; the T/C (endpoint: mean survival time, dose: 150.0 mg/kg/injection, schedule: Q04DX002 (ip), vehicle: Klucel (hydroxypropylcellulose) (HPC)) was 166 % of control; the T/C (endpoint: mean survival time, dose: 150.0 mg/kg/injection, schedule: Q04DX003 (ip), vehicle: Klucel (hydroxypropylcellulose) (HPC)) is 172 % of control and 223 % of control; the T/C (endpoint: mean survival time, dose: 200.0 mg/kg/injection, schedule: Q04DX002 (ip), vehicle: Klucel (hydroxypropylcellulose) (HPC)) is 223 % of control; the T/C (endpoint: mean survival time, dose: 225.0 mg/kg/injection, schedule: Q04DX003 (ip), vehicle: Klucel (hydroxypropylcellulose) (HPC)) was 301 % of control. For the same compound, the T/C (endpoint: mean survival time, dose: 300.0 mg/kg/injection, schedule: Q01DX001 (ip), vehicle: Klucel (hydroxypropylcellulose) (HPC)) was 171 % of control and 201 % of control; the T/C (endpoint: mean survival time, dose: 300.0 mg/kg/injection, schedule: Q04DX002 (ip), vehicle: Klucel (hydroxypropylcellulose) (HPC)) was 212 % of control and 293 % of control; the T/C (endpoint: mean survival time, dose: 300.0 mg/kg/injection, schedule: Q04DX003 (ip), vehicle: Klucel (hydroxypropylcellulose) (HPC)) is 118 % of control; the T/C (endpoint: mean survival time, dose: 450.0 mg/kg/injection, schedule: Q04DX002 (ip), vehicle: Klucel (hydroxypropylcellulose) (HPC)) is 225 % of control.

Turning to `Nc1nc(N)c2c(ccc3c2ccn3Cc2cccc([N+](=O)[O-])c2)n1`, the T/C (endpoint: median survival time, dose: 0.75 mg/kg/injection, schedule: Q01DX009 (ip), vehicle: saline with Tween-80) is 104 % of control; the T/C (endpoint: median survival time, dose: 1.5 mg/kg/injection, schedule: Q01DX009 (ip), vehicle: saline with Tween-80) was 111 % of control; the T/C (endpoint: median survival time, dose: 1.56 mg/kg/injection, schedule: Q01DX009 (ip), vehicle: saline with Tween-80) is 110 % of control; the T/C (endpoint: median survival time, dose: 3.0 mg/kg/injection, schedule: Q01DX009 (ip), vehicle: saline with Tween-80) is 117 % of control; the T/C (endpoint: median survival time, dose: 3.12 mg/kg/injection, schedule: Q01DX009 (ip), vehicle: saline with Tween-80) was 118 % of control; the T/C (endpoint: median survival time, dose: 12.5 mg/kg/injection, schedule: Q01DX009 (ip), vehicle: saline with Tween-80) is 90 % of control and 98 % of control. The T/C (endpoint: median survival time, dose: 25.0 mg/kg/injection, schedule: Q01DX009 (ip), vehicle: saline with Tween-80) is 102 % of control and 103 % of control.
